Paper PMC6934184, “Selective DNA-PKcs inhibition extends the therapeutic index of localized radiotherapy and chemotherapy” (The Journal of Clinical Investigation, 2019)

Target: T1, FER (Homo sapiens, UniProt P16591)
T1 construct: purchased Thermo Fisher Scientific (Life Technologies) SelectScreen
Assay: SelectScreen Z'LYTE
Format: biochemical
Summary of the method: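 Percent values come from Thermo SelectScreen profiling of NU5455, combining activity and binding assays. CSF1R was run in Z'LYTE format at Km app ATP, and CAMK1 in Adapta format with ATP listed at 10.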

T1 sequence (P16591 whole entry): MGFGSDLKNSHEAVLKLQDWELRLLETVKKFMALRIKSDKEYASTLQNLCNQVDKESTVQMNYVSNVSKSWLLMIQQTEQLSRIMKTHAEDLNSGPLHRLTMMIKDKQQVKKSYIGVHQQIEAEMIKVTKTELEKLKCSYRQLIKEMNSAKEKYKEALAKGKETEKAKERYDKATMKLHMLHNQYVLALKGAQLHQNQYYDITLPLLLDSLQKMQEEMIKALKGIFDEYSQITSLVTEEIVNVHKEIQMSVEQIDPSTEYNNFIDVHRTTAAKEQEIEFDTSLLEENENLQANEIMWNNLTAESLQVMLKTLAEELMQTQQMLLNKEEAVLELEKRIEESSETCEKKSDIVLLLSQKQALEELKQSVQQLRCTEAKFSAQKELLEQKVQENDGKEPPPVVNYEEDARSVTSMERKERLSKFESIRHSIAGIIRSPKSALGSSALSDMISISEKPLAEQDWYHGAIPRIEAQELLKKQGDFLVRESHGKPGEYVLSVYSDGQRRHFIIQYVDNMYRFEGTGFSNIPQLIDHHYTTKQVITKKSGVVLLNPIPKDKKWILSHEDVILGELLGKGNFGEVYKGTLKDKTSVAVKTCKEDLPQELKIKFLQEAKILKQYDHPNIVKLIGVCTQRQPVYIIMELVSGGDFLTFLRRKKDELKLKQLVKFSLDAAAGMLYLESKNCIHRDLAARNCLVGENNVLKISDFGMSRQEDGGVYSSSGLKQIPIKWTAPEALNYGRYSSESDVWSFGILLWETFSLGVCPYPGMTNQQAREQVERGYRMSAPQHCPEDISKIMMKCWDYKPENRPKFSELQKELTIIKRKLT

SMILES: CN(C(=O)CN1CCOCC1)c1ccc2sc3c(-c4cccc5c(=O)cc(N6CC7CCC(C6)O7)oc45)cccc3c2c1 [NU5455]
- inhibition at 1 µM: 7.1%
